# Reference: US20070093513A1, “Agent for repairing corneal perception” (SENJU PHARMACEUTICAL CO., LTD., priority 2003, published 2007)
# Structures can show the parent of a compound that is named as a salt.
# How the values were obtained:
# [1] = system: cultured rabbit trigeminal nerve cells; experiment: Neurite outgrowth promoting effect in cultured rabbit trigeminal nerve cells (Experimental Example 2); type: cell-based, Japanese White Rabbits; conditions: cultured for 48 hrs, non-addition group about 31%
# From the text: Japanese White Rabbits (2-3 days old) purchased from KITAYAMA LABES Co., Ltd. were used.
# As a ROCK inhibitor, 2-chloro-6,7-dimethoxy-N-[5-1H-indazolyl]quinazoline-4-amine, N-(1-benzyl-4-piperidinyl)-1H-indazole-5-amine dihydrochloride, 4-[2-(2,3,4,5,6-pentafluorophenyl)acryloyl]cinnamic acid and fasudil hydrochloride were used.
# 2-Chloro-6,7-dimethoxy-N-[5-1H-indazolyl]quinazoline-4-amine (hereinafter to be indicated as compound 1) used was synthesized according to Reference Example 1. N-(1-benzyl-4-piperidinyl)-1H-indazole-5-amine dihydrochloride.½ hydrate (hereinafter to be indicated as compound 2) used was synthesized according to Reference Example 2. 4-[2-(2,3,4,5,6-Pentafluorophenyl)acryloyl]cinnamic acid (hereinafter to be indicated as compound 3) used was synthesized according to Reference Example 3. Fasudil hydrochloride (hereinafter to be indicated as compound 4) used was a commercially available fasudil hydrochloride hydrate injection, “Eril Injection 30 mg” (manufactured by Asahi Kasei Corporation).
# Rabbit trigeminal nerve cells were isolated in the same manner as in Experimental Example 1. For cell culture, a culture medium obtained by adding B27 Supplement (manufactured by GIBCO; final concentration 2% v/v) and L-glutamine (manufactured by GIBCO; concentration 1 mM) to neurobasal culture medium (manufactured by GIBCO) was used. A circular cover glass (diameter 12 mm; manufactured by SUMITOMO BAKELITE) after polylysine/laminin coating was placed in each well of a 24 well plate, and cells were plated on the cover glass at about 3×10^3 cells/well. After cell adhesion to the cover glass (about 2 hrs), the above-mentioned culture medium was changed to a culture medium containing each test substance (compound 1, final concentration 10 μM; compound 2, final concentration 10 μM; compound 3, final concentration 1 μM; compound 4, final concentration 10 μM) and the cells were cultured for 48 hrs. […]
# A specimen fixed using an anti-neurofilament 200 antibody (manufactured by Sigma) that recognize neurofilaments, which are intermediate filaments specific to nerve cell, and a fluorescent secondary antibody (manufactured by Molecular Probes) reactive therewith was fluorescence stained and the stained cells were detected using a fluorescence microscope. […] The whole cell number (t) of each image was counted. Along therewith, the length of cell neurite and the diameter of cell body were measured using an image analysis software (MacSCOPE, manufactured by MITANI CO.), and the cells having a neurite with a length of not less than twice the diameter of the cell body were counted as neuritogenetic cell (a). Then the rate (%) of the total neuritogenetic cell number (a1+a2+ . . . +an=Σa) to the total cell number (Σt) was calculated. […]
melting point,Compound,rate of the neuritogenetic cells relative to the total cells ([1]; final concentration 10 μM),rate of the neuritogenetic cells relative to the total cells ([1]; final concentration 1 μM)
278.7 to 283.8 °C,"COc1cc2nc(Cl)nc(Nc3ccc4[nH]ncc4c3)c2cc1OC [compound 1, 2-Chloro-6,7-dimethoxy-N-[5-1H-indazolyl]quinazoline-4-amine]",about 41%,–
–,"Cl.Cl.Cl.Cl.O.c1ccc(CN2CCC(Nc3ccc4[nH]ncc4c3)CC2)cc1.c1ccc(CN2CCC(Nc3ccc4[nH]ncc4c3)CC2)cc1 [compound 2, N-(1-benzyl-4-piperidinyl)-1H-indazole-5-amine dihydrochloride.½ hydrate]",about 57%,–
–,"C=C(C(=O)c1ccc(C=CC(=O)O)cc1)c1c(F)c(F)c(F)c(F)c1F [compound 3, 4-[2-(2,3,4,5,6-Pentafluorophenyl)acryloyl]cinnamic acid]",–,about 51%
–,"O=S(=O)(c1cccc2cnccc12)N1CCCNCC1 [compound 4, Fasudil hydrochloride]",about 70%,–
